According to US20100249419A1, “UTILIZATION OF NOVEL COMPOUNDS WITH AMYLOID AFFINITY AND METHOD OF PRODUCING THE SAME” (NIHON MEDI-PHYSICS CO., LTD., priority 2007, published 2010):
One block for each substance: values may come before it.

Legend:
[1] = Radioactive distribution ratio in each organ; type: in vivo, SD rat
Method: In order to confirm that a compound of the present invention can be distributed in a target organ and has good clearance to the outside of the body, Compound 1 was used to measure a time-course change of radioactive accumulation to each organ in SD rat (8 weeks).
A solution of Compound 1 prepared in Example 3 in diethylether was diluted with a 10 mg/mL ascorbic acid-containing physiological saline solution (Example 10) and adjusted to 8-12 MBq/mL in radioactive concentration. 0.05 mL each of the prepared sample solution was administered under thiopental anesthesia into the tail vein of the above rat. The rats were sacrificed by bleeding from abdominal artery, and each organ shown in Table 11 was removed 5, 30, 60 and 180 minutes after the administration. Each removed organ was subjected to measurement of mass and radioactivity with the same method as in Example 10. Also, radioactivity of the whole body of the rat after removal of the organs (hereinafter referred to as rest of the whole body) was measured. Using these measurement results, radioactive distribution per unit weight of each organ (% ID/g) at the respective time points was calculated in accordance with the following formula (7).
Three animals were used for the experiment at the respective time points.
[formula] • R^T: Radioactivity of target organ (cpm) • R^S: Sum of radioactivity of all the organs (cpm) • R^R: Radioactivity of the rest of the whole body (cpm) • M^T: Mass of target organ (g)

β2-microglobulin amyloid = target: T1, β2-microglobulin amyloid (Homo sapiens, UniProt P61769); experiment: In vitro binding of labeled compound to β2-m-amyloid (glass fiber filter); settings: β2-m-amyloid 0.8 μg/mL, 22° C., 3 hours
T1 construct: purchased Oriental Yeast Co., ltd
Method: β2-microglobulin with cross -sheet structure was prepared by the following procedures (5) and (6) which was the method described in the known literature (Ohhashi, Y. et al., Journal of Biological Chemistry. 280, p. 32843-32848 (2005)) to which a little modification was made. […]
(8) A solution of Compound 1 which was synthesized by the method above in Example 3 was prepared (radioactivity of 500 MBq/mL), and diluted with a 0.1% bovine serum albumin-containing phosphate buffer (pH 7.4) to prepare a solution of 1.2-112.9 pM in terms of the total amount of 2-[4′-(2″-hydroxyethoxy)phenyl]-6-iodoimidazo[1,2-a]pyridine. […]
(11) The glass fiber filter used for the filtration of the mixture was washed with a 0.1% bovine serum albumin-containing phosphate buffer (0.2 mL×5), and radioactivity of the glass fiber filter was measured with an autowell gamma system (manufactured by Aloka, Type: ARC-7001).
(12) From the measurement results of (11), relation between the amount of Compound 1 binding to amyloid and addition amount of amyloid was evaluated. For a non-specific binding, it was determined from a sample in which no amyloid suspension was added above in (9) (Example 36). […]

Radioactive distribution per unit weight of organ, Average ([1]; Adrenal gland, 5 min. after administration): 2.471 % ID/g | Radioactive distribution per unit weight of organ, Average ([1]; Adrenal gland, 30 min. after administration): 0.199 % ID/g | Radioactive distribution per unit weight of organ, Average ([1]; Adrenal gland, 60 min. after administration): 0.068 % ID/g | Radioactive distribution per unit weight of organ, Average ([1]; Adrenal gland, 180 min. after administration): 0.052 % ID/g | Radioactive distribution per unit weight of organ, Average ([1]; Blood, 5 min. after administration): 0.420 % ID/g | Radioactive distribution per unit weight of organ, Average ([1]; Blood, 30 min. after administration): 0.129 % ID/g | Radioactive distribution per unit weight of organ, Average ([1]; Blood, 60 min. after administration): 0.101 % ID/g | Radioactive distribution per unit weight of organ, Average ([1]; Blood, 180 min. after administration): 0.068 % ID/g | Radioactive distribution per unit weight of organ, Average ([1]; Bone, 5 min. after administration): 0.282 % ID/g | Radioactive distribution per unit weight of organ, Average ([1]; Bone, 30 min. after administration): 0.066 % ID/g | Radioactive distribution per unit weight of organ, Average ([1]; Bone, 60 min. after administration): 0.047 % ID/g | Radioactive distribution per unit weight of organ, Average ([1]; Bone, 180 min. after administration): 0.032 % ID/g | Radioactive distribution per unit weight of organ, Average ([1]; Brain, 5 min. after administration): 0.755 % ID/g | Radioactive distribution per unit weight of organ, Average ([1]; Brain, 30 min. after administration): 0.049 % ID/g | Radioactive distribution per unit weight of organ, Average ([1]; Brain, 60 min. after administration): 0.014 % ID/g | Radioactive distribution per unit weight of organ, Average ([1]; Brain, 180 min. after administration): 0.005 % ID/g | Radioactive distribution per unit weight of organ, Average ([1]; Heart, 5 min. after administration): 0.582 % ID/g | Radioactive distribution per unit weight of organ, Average ([1]; Heart, 30 min. after administration): 0.081 % ID/g | Radioactive distribution per unit weight of organ, Average ([1]; Heart, 60 min. after administration): 0.049 % ID/g | Radioactive distribution per unit weight of organ, Average ([1]; Heart, 180 min. after administration): 0.029 % ID/g | Radioactive distribution per unit weight of organ, Average ([1]; Kidney, 5 min. after administration): 1.212 % ID/g | Radioactive distribution per unit weight of organ, Average ([1]; Kidney, 30 min. after administration): 0.432 % ID/g | Radioactive distribution per unit weight of organ, Average ([1]; Kidney, 60 min. after administration): 0.236 % ID/g | Radioactive distribution per unit weight of organ, Average ([1]; Kidney, 180 min. after administration): 0.070 % ID/g | Radioactive distribution per unit weight of organ, Average ([1]; Large intestine, 5 min. after administration): 0.139 % ID/g | Radioactive distribution per unit weight of organ, Average ([1]; Large intestine, 30 min. after administration): 0.054 % ID/g | Radioactive distribution per unit weight of organ, Average ([1]; Large intestine, 60 min. after administration): 0.069 % ID/g | Radioactive distribution per unit weight of organ, Average ([1]; Large intestine, 180 min. after administration): 6.876 % ID/g | Radioactive distribution per unit weight of organ, Average ([1]; Liver, 5 min. after administration): 1.865 % ID/g | Radioactive distribution per unit weight of organ, Average ([1]; Liver, 30 min. after administration): 0.293 % ID/g | Radioactive distribution per unit weight of organ, Average ([1]; Liver, 60 min. after administration): 0.113 % ID/g | Radioactive distribution per unit weight of organ, Average ([1]; Liver, 180 min. after administration): 0.051 % ID/g | Radioactive distribution per unit weight of organ, Average ([1]; Lung, 5 min. after administration): 0.661 % ID/g | Radioactive distribution per unit weight of organ, Average ([1]; Lung, 30 min. after administration): 0.117 % ID/g | Radioactive distribution per unit weight of organ, Average ([1]; Lung, 60 min. after administration): 0.076 % ID/g | Radioactive distribution per unit weight of organ, Average ([1]; Lung, 180 min. after administration): 0.053 % ID/g | Radioactive distribution per unit weight of organ, Average ([1]; Marrow, 5 min. after administration): 0.921 % ID/g | Radioactive distribution per unit weight of organ, Average ([1]; Marrow, 30 min. after administration): 0.087 % ID/g | Radioactive distribution per unit weight of organ, Average ([1]; Marrow, 60 min. after administration): 0.015 % ID/g | Radioactive distribution per unit weight of organ, Average ([1]; Marrow, 180 min. after administration): 0.000 % ID/g | Radioactive distribution per unit weight of organ, Average ([1]; Muscle, 5 min. after administration): 0.372 % ID/g | Radioactive distribution per unit weight of organ, Average ([1]; Muscle, 30 min. after administration): 0.042 % ID/g | Radioactive distribution per unit weight of organ, Average ([1]; Muscle, 60 min. after administration): 0.025 % ID/g | Radioactive distribution per unit weight of organ, Average ([1]; Muscle, 180 min. after administration): 0.015 % ID/g | Radioactive distribution per unit weight of organ, Average ([1]; Pancreas, 5 min. after administration): 0.778 % ID/g | Radioactive distribution per unit weight of organ, Average ([1]; Pancreas, 30 min. after administration): 0.097 % ID/g | Radioactive distribution per unit weight of organ, Average ([1]; Pancreas, 60 min. after administration): 0.051 % ID/g | Radioactive distribution per unit weight of organ, Average ([1]; Pancreas, 180 min. after administration): 0.033 % ID/g | Excretion / clearance to the outside of the body ([1]; SD rat, tail vein administration): biliary-excreted rapidly | Radioactive distribution per unit weight of organ, Average ([1]; Small intestine, 5 min. after administration): 1.299 % ID/g | Radioactive distribution per unit weight of organ, Average ([1]; Small intestine, 30 min. after administration): 6.720 % ID/g | Radioactive distribution per unit weight of organ, Average ([1]; Small intestine, 60 min. after administration): 7.515 % ID/g | Radioactive distribution per unit weight of organ, Average ([1]; Small intestine, 180 min. after administration): 0.882 % ID/g | Radioactive distribution per unit weight of organ, Average ([1]; Spleen, 5 min. after administration): 0.508 % ID/g | Radioactive distribution per unit weight of organ, Average ([1]; Spleen, 30 min. after administration): 0.072 % ID/g | Radioactive distribution per unit weight of organ, Average ([1]; Spleen, 60 min. after administration): 0.044 % ID/g | Radioactive distribution per unit weight of organ, Average ([1]; Spleen, 180 min. after administration): 0.035 % ID/g | Radioactive distribution per unit weight of organ, Average ([1]; Stomach, 5 min. after administration): 0.492 % ID/g | Radioactive distribution per unit weight of organ, Average ([1]; Stomach, 30 min. after administration): 1.202 % ID/g | Radioactive distribution per unit weight of organ, Average ([1]; Stomach, 60 min. after administration): 0.808 % ID/g | Radioactive distribution per unit weight of organ, Average ([1]; Stomach, 180 min. after administration): 0.982 % ID/g | Ratio (% ID/g at 5 minutes after the administration)/(% ID/g at 180 minutes after the administration) ([1]; bones): 9 | Ratio (% ID/g at 5 minutes after the administration)/(% ID/g at 180 minutes after the administration) ([1]; brain): 145 | Ratio (% ID/g at 5 minutes after the administration)/(% ID/g at 180 minutes after the administration) ([1]; heart): 20 | Ratio (% ID/g at 5 minutes after the administration)/(% ID/g at 180 minutes after the administration) ([1]; lung): 13 | Ratio (% ID/g at 5 minutes after the administration)/(% ID/g at 180 minutes after the administration) ([1]; pancreas): 24
Substance: 2-[4′-(2″-hydroxyethoxy)phenyl]-6-[^123I]iodoimidazo[1,2-a]pyridine [Compound 1]
Radioactivity of the glass fiber filter versus amyloid non-added group (β2-microglobulin amyloid): all high compared to the group without amyloid suspension

Substance: 2-[4′-(3″-hydroxypropoxy)phenyl]-6-[^123I]iodoimidazo[1,2-a]pyridine [Compound 6]
Radioactivity of the glass fiber filter versus amyloid non-added group (β2-microglobulin amyloid): all high compared to the group without amyloid suspension
